{"source": "patent US20060079566A1", "about": "“PDK-1/Akt signaling inhibitors” (priority 2003, published 2006)", "experiment_in_all_cases": "NCI DTP screen (SRB), Non-Small Cell Lung Cancer", "type_in_all_cases": "cell-based", "key": {"A549/ATCC": {"test_system": "A549/ATCC", "conditions": "Homo sapiens", "experimental": "(§1) Screening of compounds 70 and 71 against several cancer cell lines The human tumor cell lines of the cancer screening panel are grown in RPMI 1640 medium containing 5% fetal bovine serum and 2 mM L-glutamine. For a typical screening experiment, cells are inoculated into 96 well microtiter plates in 100 μL at plating densities ranging from 5,000 to 40,000 cells/well depending on the doubling time of individual cell lines. After cell inoculation, the microtiter plates are incubated at 37° C., 5% CO2, 95% air and 100% relative humidity for 24 h prior to addition of experimental drugs.\n(§2) After 24 h, two plates of each cell line are fixed in situ with TCA, to represent a measurement of the cell population for each cell line at the time of drug addition (Tz). Experimental drugs are solubilized in dimethyl sulfoxide at 400-fold the desired final maximum test concentration and stored frozen prior to use. At the time of drug addition, an aliquot of frozen concentrate is thawed and diluted to twice the desired final maximum test concentration with complete medium containing 50 μg/ml gentamicin. Additional four, 10-fold or ½ log serial dilutions are made to provide a total of five drug concentrations plus control. Aliquots of 100 μl of these different drug dilutions are added to the appropriate microtiter wells already containing 100 μl of medium, resulting in the required final drug concentrations.\n(§3) Following drug addition, the plates are incubated for an additional 48 h at 37° C., 5% CO2, 95% air, and 100% relative humidity. For adherent cells, the assay is terminated by the addition of cold TCA. Cells are fixed in situ by the gentle addition of 50 μl of cold 50% (w/v) TCA (final concentration, 10% TCA) and incubated for 60 minutes at 4° C. The supernatant is discarded, and the plates are washed five times with tap water and air dried. Sulforhodamine B (SRB) solution (100 μl) at 0.4% (w/v) in 1% acetic acid is added to each well, and plates are incubated for 10 minutes at room temperature. After staining, unbound dye is removed by washing five times with 1% acetic acid and the plates are air dried. Bound stain is subsequently solubilized with 10 mM trizma base, and the absorbance is read on an automated plate reader at a wavelength of 515 nm. For suspension cells, the methodology is the same except that the assay is terminated by fixing settled cells at the bottom of the wells by gently adding 50 μl of 80% TCA (final concentration, 16% TCA). Using the seven absorbance measurements [time zero, (Tz), control growth, (C), and test growth in the presence of drug at the five concentration levels (Ti)], the percentage growth is calculated at each of the drug concentrations levels. Percentage growth inhibition is calculated as: [(Ti−Tz)/(C−Tz)]×100 for concentrations for which Ti>/=Tz [(Ti−Tz)/Tz]×100 for concentrations for which Ti<Tz\n(§4) Three dose response parameters are calculated for each experimental agent. […] The drug concentration resulting in total growth inhibition (TGI) is calculated from Ti=Tz. […] Values are calculated for each of these three parameters if the level of activity is reached; however, if the effect is not reached or is exceeded, the value for that parameter is expressed as greater or less than the maximum or minimum concentration tested."}, "EKVX": {"test_system": "EKVX", "conditions": "Homo sapiens", "experimental": "as §1, §2, §3, §4"}, "HOP-62": {"test_system": "HOP-62", "conditions": "Homo sapiens", "experimental": "as §1, §2, §3, §4"}, "NCI-H226": {"test_system": "NCI-H226", "conditions": "Homo sapiens", "experimental": "as §1, §2, §3, §4"}, "NCI-H23": {"test_system": "NCI-H23", "conditions": "Homo sapiens", "experimental": "as §1, §2, §3, §4"}, "NCI-H322M": {"test_system": "NCI-H322M", "conditions": "NCI-H322M", "experimental": "as §1, §2, §3, §4"}}}
{"smiles": "NCC(=O)Nc1ccc(-n2nc(C(F)(F)F)cc2-c2ccc3c(ccc4ccccc43)c2)cc1", "note": "[Compound 70, 2-Amino-N-{4-[5-(2-phenanthrenyl)-3-(trifluoromethyl)-1H-pyrazol-1-yl]-phenyl}-acetamide]", "values": [{"measurement": "GI50", "setting": "A549/ATCC", "result": 1020, "unit": "nM"}, {"measurement": "GI50", "setting": "EKVX", "result": 1490, "unit": "nM"}, {"measurement": "GI50", "setting": "HOP-62; HOP-62", "result": 1270, "unit": "nM"}, {"measurement": "CC50", "setting": "HOP-62; HOP-62, read-out: LC50", "result": 7.13, "unit": "µM"}, {"measurement": "GI50", "setting": "NCI-H226", "result": 1200, "unit": "nM"}, {"measurement": "GI50", "setting": "NCI-H23; NCI-H23", "result": 1300, "unit": "nM"}, {"measurement": "CC50", "setting": "NCI-H23; NCI-H23, read-out: LC50", "result": 6.33, "unit": "µM"}, {"measurement": "CC50", "setting": "NCI-H322M; Homo sapiens, read-out: LC50", "result": 5.4, "unit": "µM"}, {"measurement": "Mean Optical Densities", "setting": "NCI-H322M; Log10 Concentration −5.0", "result": 1.100}, {"measurement": "Percent Growth", "setting": "NCI-H322M; Log10 Concentration −8.0", "result": 60, "unit": "%"}]}
